Source: patent publication US9150560B2, “Inhibitors of histone deacetylase” (Janssen Pharmaceutica, N.V., priority 2002, dated 2015)
Read-outs that look alike come from different tables or passages of the source.

Experiments:
[1] = biological target: histone deacetylase (HDAC), HeLa nuclear extracts; experiment: In vitro assay for inhibition of histone deacetylase; assay type: biochemical; set-up: key: pIC50 = negative log of IC50; conditions: [3H]acetylated histone H4 peptide substrate, 30 min
Method: The in vitro assay for inhibition of histone deacetylase (see example C.1) measures the inhibition of HDAC enzymatic activity obtained with the compounds of formula (I).
HeLa nuclear extracts (supplier: Biomol) were incubated at 60 μg/ml with 2×10^−8 M of radiolabeled peptide substrate. As a substrate for measuring HDAC activity a synthetic peptide, i.e. the amino acids 14-21 of histone H4, was used. The substrate is biotinylated at the NH2-terminal part with a 6-aminohexanoic acid spacer, and is protected at the COOH-terminal part by an amide group and specifically [^3H]acetylated at lysine 16. The substrate, biotin-(6-aminohexanoic)Gly-Ala-([^3H]-acetyl-Lys-Arg-His-Arg-Lys-Val-NH2), was added in a buffer containing 25 mM Hepes, 1 M sucrose, 0.1 mg/ml BSA and 0.01% Triton X-100 at pH 7.4. After 30 min the deacetylation reaction was terminated by the addition of HCl and acetic acid. (final concentration 0.035 mM and 3.8 mM respectively). After stopping the reaction, the free ^3H-acetate was extracted with ethylacetate. After mixing and centrifugation, the radioactivity in an aliquot of the upper (organic) phase was counted in a β-counter.
For each experiment, controls (containing HeLa nuclear extract and DMSO without compound), a blank incubation (containing DMSO but no HeLa nuclear extract or compound) and samples (containing compound dissolved in DMSO and HeLa nuclear extract) were run in parallel. In first instance, compounds were tested at a concentration of 10^−5M. […] In each test the blank value was substracted from both the control and the sample values. The control sample represented 100% of substrate deactylation. For each sample the radioactivity was expressed as a percentage of the mean value of the controls. […] Herein the effects of test compounds are expressed as pIC50 (the negative log value of the IC50-value).

[2] = system: A2780 ovarian carcinoma cells; experiment: Determination of antiproliferative activity on A2780 cells (MTT); assay type: cell-based, human; conditions: four days of incubation; for IC50: Homo sapiens, 96 h, read-out: Cellular activity pIC50 (converted)
Method: Cellular activity of the compounds of formula (I) was determined on A2780 tumour cells using a colorimetric assay for cell toxicity or survival (Mosmann Tim, Journal of Immunological Methods 65: 55-63, 1983)(see example C.2).
All compounds tested were dissolved in DMSO and further dilutions were made in culture medium. Final DMSO concentrations never exceeded 0.1% (v/v) in cell proliferation assays. Controls contained A2780 cells and DMSO without compound and blanks contained DMSO but no cells. MTT was dissolved at 5 mg/ml in PBS. A glycine buffer comprised of 0.1 M glycine and 0.1 M NaCl buffered to pH 10.5 with NaOH (1 N) was prepared (all reagents were from Merck).
The human A2780 ovarian carcinoma cells (a kind gift from Dr. T. C. Hamilton [Fox Chase Cancer Centre, Pennsylvania, USA]) were cultured in RPMI 1640 medium supplemented with 2 mM L-glutamine, 50 μg/ml gentamicin and 10% fetal calf serum. Cells were routinely kept as monolayer cultures at 37° C. in a humidified 5% CO2 atmosphere. Cells were passaged once a week using a trypsin/EDTA solution at a split ratio of 1:40. All media and supplements were obtained from Life Technologies. Cells were free of mycoplasma contamination as determined using the Gen-Probe Mycoplasma Tissue Culture kit (supplier: BioMérieux).
Cells were seeded in NUNC™ 96-well culture plates (Supplier: Life Technologies) and allowed to adhere to the plastic overnight. Densities used for plating were 1500 cells per well in a total volume of 200 μl medium. After cell adhesion to the plates, medium was changed and drugs and/or solvents were added to a final volume of 200 μl. Following four days of incubation, medium was replaced by 200 μl fresh medium and cell density and viability was assessed using an MTT-based assay. To each well, 25 μl MTT solution was added and the cells were further incubated for 2 hours at 37° C. The medium was then carefully aspirated and the blue MTT-formazan product was solubilized by addition of 25 μl glycine buffer followed by 100 μl of DMSO. […] Within an experiment, the results for each experimental condition are the mean of 3 replicate wells. For initial screening purposes, compounds were tested at a single fixed concentration of 10^−6M. For active compounds, the experiments were repeated to establish full concentration-response curves. For each experiment, controls (containing no drug) and a blank incubation (containing no cells or drugs) were run in parallel. The blank value was subtracted from all control and sample values. For each sample, the mean value for cell growth (in absorbance units) was expressed as a percentage of the mean value for cell growth of the control. […] Herein the effects of test compounds are expressed as pIC50 (the negative log value of the IC50-value).

[3] = Kinetic solubility in aqueous media (nephelometry); assay type: physicochemical; conditions: phosphate citrate buffer pH 7.4, turbidity of three dilution steps
Method: Kinetic solubility in aqueous media measures the ability of a compound to stay in aqueous solution upon dilution (see example C.3).
DMSO-stock solutions are diluted with a single aqueous buffer solvent in 3 consecutive steps. For every dilution turbidity is measured with a nephelometer.
In the first dilution step, 10 μl of a concentrated stock-solution of the active compound, solubilized in DMSO (5 mM), was added to 100 μl phosphate citrate buffer pH 7.4 and mixed. In the second dilution step, an aliquot (20 μl) of the first dilution step was further dispensed in 100 μl phosphate citrate buffer pH 7.4 and mixed. Finally, in the third dilution step, a sample (20 μl) of the second dilution step was further diluted in 100 μl phosphate citrate buffer pH 7.4 and mixed. All dilutions were performed in 96-well plates. Immediately after the last dilution step the turbidity of the three consecutive dilution steps were measured with a nephelometer. Dilution was done in triplicate for each compound to exclude occasional errors. Based on the turbidity measurements a ranking is performed into 3 classes. Compounds with high solubility obtained a score of 3 and for this compounds the first dilution is clear. Compounds with medium solubility obtained a score of 2. For these compounds the first dilution is unclear and the second dilution is clear. […] The solubility of 9 compounds was measured.

[4] = not given; remark: listed apart in the source

| SMILES | % metabolism (human, 15 min, 5 μM) | Enzyme activity pIC50 [1] | IC50 [2] | Solubility Score [3] | melting point [4] | Cellular activity pIC50 [2] | % metabolism (15 min incubation, compound 5 μM, microsomes 1 mg/ml, NADPH-generating system) |
| --- | --- | --- | --- | --- | --- | --- | --- |
| COc1cc(N)c(Cl)cc1C(=O)NC1CCN(CCCOc2ccc(F)cc2)CC1OC (stereo not shown) [Cisapride] | 45% | – | – | – | – | – | – |
| O=C(CS)Nc1ccc(N2CCC3(CC2)C(=O)NCN3c2ccccc2)cc1 [Co. No. 1] | – | <5 | > 10000 nM | 1 (Compounds with low solubility obtained a score of 1 and for these compounds both the first and the second dilution are unclear) | – | – | – |
| CN(C)S(=O)(=O)N1CCN(c2ncc(C(=O)NO)cn2)CC1 [Co. No. 2] | – | 6.615 | 2920 nM | 3 (Compounds with high solubility obtained a score of 3 and for this compounds the first dilution is clear) | > 260 °C | – | – |
| NS(=O)(=O)N1CCN(c2ncc(C(=O)NO)cn2)CC1 [Co. No. 3] | – | 6.881 | > 10000 nM | 3 (Compounds with high solubility obtained a score of 3 and for this compounds the first dilution is clear) | 212 °C | – | – |
| CN(C)S(=O)(=O)NCC1CCN(c2ncc(C(=O)NO)cn2)CC1 [Co. No. 4] | – | 7.27 | 2960 nM | 3 (Compounds with high solubility obtained a score of 3 and for this compounds the first dilution is clear) | 182 °C | – | – |
| O=C(NO)c1cnc(N2CCN(C(=O)C(c3ccccc3)c3ccccc3)CC2)nc1 [Co. No. 5] | – | 7.096 | 659 nM | – | – | – | – |
| O=C(NO)c1cnc(N2CCN(C(=O)c3ccc4ccccc4c3)CC2)nc1 [Co. No. 6] | – | 7.104 | 1490 nM | 3 (Compounds with high solubility obtained a score of 3 and for this compounds the first dilution is clear) | 130 °C | – | – |
| CCCCCCCCS(=O)(=O)N1CCN(c2ccc(C(=O)NO)cc2)CC1 [compound 18] | – | 6.173 | – | 1 (Compounds with low solubility obtained a score of 1 and for these compounds both the first and the second dilution are unclear) | – | 6.166 | – |
| O=C(NO)c1cnc(N2CCN(C(=O)c3cccc4ccccc34)CC2)nc1 [compound 24] | – | 7.073 | – | – | – | 6.084 | – |
| CCCO [propanol] | – | – | – | – | – | – | 25% |
